Tested on: MDA-MB-231 cells
Test: Fluorescence microscopy of A488-pHLIP cellular interaction
Assay type: cell-based, human

Which results are given for “H2N-GCEQNPIYWARYADWLF-TTPLLLLDLALLVDADEGTG-CONH2 [A488-pHLIP]”?
A488 fluorescence of cells (microscopy) (pH 5.0, absence of divalent cations): large increase in A488 fluorescence intensity; A488 fluorescence of cells (microscopy) (pH 7.4, 1.8 mM Ca2+): significant increase in A488 fluorescence intensity; A488 fluorescence of cells (microscopy) (pH 7.4, absence of divalent cations, washed before imaging): No significant fluorescence

Source: PMC6920566 (Journal of molecular biology, 2019)
